US7632844B2, “2-hydroxy-6-phenylphenanthridines as PDE-4 inhibitors” (Nycomed GmbH, priority 2002, dated 2009)

Tests used:
[1] = tested on: PDE4 (cytosol from human neutrophils); experiment: Inhibition of PDE4 activity, Method a ([3H]cAMP hydrolysis, cytosol from human neutrophils); assay type: biochemical; parameters: unit not given here; conditions: 0.5 μM cAMP, Motapizone 1 μM
Description: PDE4 activity was determined as described by Thompson et al. (Adv Cycl Nucl Res 10: 69-92, 1979) with some modifications (Bauer and Schwabe, Naunyn-Schmiedeberg's Arch Pharmacol 311: 193-198, 1980). At a final assay volume of 200 μl (96 well microtiter plates) the assay mixture contained 20 mM Tris (pH 7.4), 5 mM MgCl2, 0.5 μM cAMP, [^3H]cAMP (about 30,000 cpm/assay), the test compound and an aliquot of cytosol from human neutrophils which mainly contains PDE4 activity as described by Schudt et al. (Naunyn-Schmiedeberg's Arch Pharmacol 344: 682-690, 1991); the PDE3-specific inhibitor Motapizone (1 μM) was included to suppress PDE3 activity originating from contaminating platelets. Serial dilutions of the compounds were prepared in DMSO and further diluted 1:100 (v/v) in the assays to obtain the desired final concentrations of the inhibitors at a DMSO concentration of 1% (v/v) which by itself only slightly affected PDE4 activity.
After preincubation for 5 min at 37° C., the reaction was started by the addition of substrate (cAMP) and the assays were incubated for further 15 min at 37° C. 50 μl of 0.2 N HCl was added to stop the reaction and the assays were left on ice for about 10 min. Following incubation with 25 μg 5′-nucleotidase (Crotalus atrox snake venom) for 10 min at 37° C., the assays were loaded on QAE Sephadex A-25 (1 ml bed volume). The columns were eluted with 2 ml of 30 mM ammonium formiate (pH 6.0) and the eluate was counted for radioactivity. Results were corrected for blank values (measured in the presence of denatured protein) which were below 5% of total radioactivity. […] The IC50-values for the compounds according to the invention for the inhibition of the PDE4 activity were determined from the concentration-inhibition curves by nonlinear-regression.

melting point [°C] | Inhibition of the PDE4 activity, −log IC50 [1] | SMILES
114 to 118 | 8.12 | COc1cc2c(cc1OC)C1CC(O)CCC1N=C2c1ccc(OCC2CC2)c(OCC2CC2)c1 (racemic) [Compound 13, (±)-(2SR,4aRS, 10bRS)-6-(3,4-Bis-cyclopropylmethoxyphenyl)-8,9-dimethoxy-(1,2,3,4,4a,10b)-hexahydrophenanthridin-2-ol]
83 to 92 | 8.98 | COc1cc2c(cc1OC)C1CC(O)CCC1N=C2c1ccc(OCC2CC2)c(OCC2CC2)c1 (racemic) [Compound 7, (±)-(2RS,4aRS,10bRS)-6-(3,4-Bis-cyclopropylmethoxyphenyl)-8,9-dimethoxy-(1,2,3,4,4a,10b)-hexahydrophenanthridin-2-ol]
– | 7.26 | COc1cc2c(cc1OC)C1CC(OC(C)=O)CCC1N=C2c1ccc(OCC2CC2)c(OCC2CC2)c1 (racemic) [Compound 6, (±)-Acetic acid (2SR,4aRS,10bRS)-6-(3,4-bis-cyclopropylmethoxyphenyl)-8,9-dimethoxy-(1,2,3,4,4a,10b)-hexahydrophenanthridin-2-yl ester]

Second part, the compound before the results:

SMILES | melting point [°C] | Inhibition of the PDE4 activity, −log IC50 [1]
COc1ccc(C2=NC3CCC(O)CC3c3cc(OC)c(OC)cc32)cc1OC (racemic) [Compound 10, (±)-(2RS,4aRS,10bRS)-6-(3,4-Dimethoxyphenyl)-8,9-dimethoxy-(1,2,3,4,4a,10b)-hexahydrophenanthridin-2-ol] | 104 to 110 | 8.71
COc1cc2c(cc1OC)C1CC(O)CCC1N=C2c1ccc(C(=O)O)cc1 (racemic) [Compound 12, (±)-(2RS,4aRS,10bRS)-6-(4-Carboxyphenyl)-8,9-dimethoxy-(1,2,3,4,4a,10b)-hexahydro-phenanthridin-2-ol] | 172 to 183 | 8.25
COc1cc2c(cc1OC)C1CC(OC(C)=O)CCC1N=C2c1ccc([N+](=O)[O-])cc1 (racemic) [Compound 5, (±)-Acetic acid (2RS,4aRS,10bRS)-6-(4-nitrophenyl)-8,9-dimethoxy-(1,2,3,4,4a,10b)-hexahydrophenanthridin-2-yl ester] | 77 to 88 | 7.09
COc1cc2c(cc1OC)C1CC(O)CCC1N=C2c1ccc([N+](=O)[O-])cc1 (racemic) [Compound 11, (±)-(2RS,4aRS, 10bRS)-6-(4-Nitrophenyl)-8,9-dimethoxy-(1,2,3,4,4a,10b)-hexahydrophenanthridin-2-ol] | 178 to 181 | 9.11
COc1cc2c(cc1OC)C1CC(O)CCC1N=C2c1ccc(N(C)C)cc1 (racemic) [Compound 9, (±)-(2RS,4aRS,10bRS)-6-(4-Dimethylaminophenyl)-8,9-dimethoxy-(1,2,3,4,4a,10b)-hexahydrophenanthridin-2-ol] | 115 to 121 | 7.13
COC(=O)c1ccc(C2=NC3CCC(O)CC3c3cc(OC)c(OC)cc32)cc1 (racemic) [Compound 8, (±)-(2RS,4aRS,10bRS)-6-(4-Methoxycarbonylphenyl)-8,9-dimethoxy-(1,2,3,4,4a,10b)-hexahydrophenanthridin-2-ol] | 94 to 105 | 9.21
